“Also recorded” adds a separate entry of the source.

The subject of this assay is HVA calcium channel. The class given is cell-based, rat.

In the case of KCCTMSVCQPPPVCTCCA [κ-CPTx-btl01], the current after loading is recorded as −459.93 pA and the “inhibition of HVA calcium channel currents compared with Nifedipine (positive control)” value is listed as “inhibitory effect is higher than that of Nifedipine; also recorded: higher inhibition rate on HVA calcium channel currents than Nifedipine”. Further, under “10 µM”, the inhibition rate was determined as 52.17%.

The values above are taken from US10501498B2 (BGI SHENZHEN, priority 2014, dated 2019).
